# In ChEMBL document CHEMBL4477267, “Discovery of oxa-sultams as RORc inverse agonists showing reduced lipophilicity, improved selectivity and favorable ADME properties” (Bioorg Med Chem Lett, 2016):
# What was measured:
# [1] = biological target: T1, Nuclear receptor ROR-gamma (Homo sapiens, UniProt P51449); experiment: Inverse agonist activity at human RORc-LBD assessed as inhibition of SRC1 co-activator peptide recruitment by FRET assay
# T1 sequence (P51449 whole entry): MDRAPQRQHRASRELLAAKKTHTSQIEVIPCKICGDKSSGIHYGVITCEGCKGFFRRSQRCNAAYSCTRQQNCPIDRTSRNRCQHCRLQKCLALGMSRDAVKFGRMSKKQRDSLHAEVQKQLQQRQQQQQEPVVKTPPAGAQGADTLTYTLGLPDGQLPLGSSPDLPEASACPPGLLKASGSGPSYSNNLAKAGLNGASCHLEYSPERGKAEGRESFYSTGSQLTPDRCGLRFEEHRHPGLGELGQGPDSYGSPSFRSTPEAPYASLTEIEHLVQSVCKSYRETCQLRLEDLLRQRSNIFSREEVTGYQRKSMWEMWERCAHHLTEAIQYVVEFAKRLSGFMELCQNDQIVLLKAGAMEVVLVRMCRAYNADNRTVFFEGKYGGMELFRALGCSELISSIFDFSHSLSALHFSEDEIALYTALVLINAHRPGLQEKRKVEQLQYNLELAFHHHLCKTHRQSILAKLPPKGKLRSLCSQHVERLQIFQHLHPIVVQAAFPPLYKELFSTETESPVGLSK
# [2] = biological target: T2, Nuclear receptor ROR-gamma (Homo sapiens) (UniProt P51449); experiment: Inverse agonist activity at human RORc-LBD assessed as inhibition of SRC1 co-activator peptide recruitment by FRET assay relative to apo-RORc basal activity
# T2 sequence (whole entry): T1 sequence (P51449 whole entry)
# PBMC [3] = experiment: Inhibition of IL-17AA production in anti-CD3 and anti-CD28 stimulated human PBMC measured […] by Sandwich ELISA; type: functional, cell-based
# PBMC [4] = experiment: Inhibition of IL-17AA production in anti-CD3 and anti-CD28 stimulated human PBMC measured […] by Sandwich ELISA relative to control; type: functional
# PBMC [5] = experiment: Inhibition of IFN-gamma production in anti-CD3 and anti-CD28 stimulated human PBMC measured […] by Sandwich ELISA; type: functional, cell-based
# PBMC [6] = experiment: Cytotoxicity against human PBMC assessed as cell viability measured after 48 hrs by CellTiter-Glo assay; type: cell-based
# [7] = biological target: T1, Nuclear receptor ROR-gamma; experiment: Inverse agonist activity at GAL4-fused human RORc expressed in HEK293 cells assessed as […] of basal transcriptional activity by dual-glo luciferase reporter gene assay; type: cell-based
# [8] = biological target: T3, Nuclear receptor ROR-alpha (Homo sapiens, UniProt P35398); experiment: Inverse agonist activity at GAL4-fused human RORa expressed in HEK293 cells assessed as […] of basal transcriptional activity by dual-glo luciferase reporter gene assay; type: cell-based
# T3 sequence (P35398 whole entry): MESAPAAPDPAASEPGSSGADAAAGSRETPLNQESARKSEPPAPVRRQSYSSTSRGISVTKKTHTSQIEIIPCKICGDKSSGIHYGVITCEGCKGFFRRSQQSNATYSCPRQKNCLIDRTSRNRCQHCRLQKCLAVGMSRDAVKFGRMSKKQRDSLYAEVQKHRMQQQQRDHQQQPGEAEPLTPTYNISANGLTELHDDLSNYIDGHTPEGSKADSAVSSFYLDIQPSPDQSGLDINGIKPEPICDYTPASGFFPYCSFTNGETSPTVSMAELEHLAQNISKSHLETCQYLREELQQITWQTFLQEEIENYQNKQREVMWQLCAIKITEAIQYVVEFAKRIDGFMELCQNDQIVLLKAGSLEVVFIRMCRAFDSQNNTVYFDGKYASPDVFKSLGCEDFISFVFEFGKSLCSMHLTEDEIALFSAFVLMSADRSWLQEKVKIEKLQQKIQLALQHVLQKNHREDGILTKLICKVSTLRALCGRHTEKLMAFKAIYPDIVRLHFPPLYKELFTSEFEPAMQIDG
# [9] = biological target: T4, Nuclear receptor ROR-beta (Homo sapiens, UniProt Q92753); experiment: Inverse agonist activity at GAL4-fused human RORb expressed in HEK293 cells assessed as […] of basal transcriptional activity by dual-glo luciferase reporter gene assay; type: cell-based
# T4 sequence (Q92753 whole entry): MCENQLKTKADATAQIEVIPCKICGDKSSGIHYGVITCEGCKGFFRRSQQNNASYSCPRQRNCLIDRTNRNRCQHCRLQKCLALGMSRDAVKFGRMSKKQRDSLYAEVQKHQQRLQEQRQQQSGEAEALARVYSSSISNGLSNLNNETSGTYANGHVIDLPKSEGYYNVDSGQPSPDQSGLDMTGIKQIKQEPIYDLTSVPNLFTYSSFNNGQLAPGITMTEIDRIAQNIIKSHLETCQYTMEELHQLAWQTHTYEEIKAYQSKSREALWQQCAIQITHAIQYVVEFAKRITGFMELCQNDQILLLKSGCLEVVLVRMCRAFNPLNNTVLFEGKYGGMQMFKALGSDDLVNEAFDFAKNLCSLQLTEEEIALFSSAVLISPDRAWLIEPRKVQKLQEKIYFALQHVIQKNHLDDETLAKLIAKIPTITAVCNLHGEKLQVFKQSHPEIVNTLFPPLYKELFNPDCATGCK
# [10] = Aqueous kinetic solubility of the compound in pH 7.4 by high-throughput assay; type: physicochemical
# [11] = Protein binding in human plasma by equilibrium dialysis; type: ADME, cell-free; conditions: read-out: PPB (converted)
# [12] = Protein binding in rat plasma by equilibrium dialysis; type: ADME, cell-free; conditions: read-out: PPB (converted)
# [13] = Protein binding in mouse plasma by equilibrium dialysis; type: ADME, cell-free; conditions: read-out: PPB (converted)
# [14] = Apparent permeability from apical to basolateral side in MDCK cells; type: ADME, cell-based, Canis lupus familiaris; conditions: dog
# [15] = Apparent permeability from basolateral to apical side in MDCK cells; type: ADME, cell-based, Canis lupus familiaris; conditions: dog
# [16] = Efflux ratio of apparent permeability from basolateral to apical over apical to basolateral side in MDCK cells; type: ADME, cell-based, Canis lupus familiaris; conditions: dog
# [17] = Clearance in human liver microsomes relative to liver blood flow; type: ADME, Microsome; conditions: read-out: CLH
# [18] = Clearance in rat liver microsomes relative to liver blood flow; type: ADME, Microsome; conditions: read-out: CLH
smiles,measurement,setting,value
CC(=O)N1CCN(c2ccc(CN3[C@@H](C)CC[C@H](c4ncccn4)S3(=O)=O)c(F)c2)CC1,EC50,[1],410 nM
same,Efficacy,[2],76%
COc1ccc([C@H]2CC[C@H](C)N(Cc3ccc(N4CCN(C(C)=O)CC4)cc3F)S2(=O)=O)cc1,EC50,[1],28 nM
same,Efficacy,[2],96%
CC(=O)N1CCN(c2ccc(CN3[C@H](C)COC[C@H](c4ccccc4)S3(=O)=O)c(F)c2)CC1,EC50,[1],73 nM
same,Efficacy,[2],98%
CC(=O)N1CCN(c2ccc(CN3CCCC[C@H](c4ccccc4)S3(=O)=O)c(F)c2)CC1,EC50,[1],6 nM
same,Efficacy,[2],99%
same,EC50,PBMC [3],430 nM
same,Imax,PBMC [4],80%
same,EC50,PBMC [5],> 20000 nM
same,EC50,PBMC [6],> 20000 nM
same,EC50,[7],25 nM
same,EC50,[8],6800 nM
same,EC50,[9],6800 nM
CC(=O)N1CCN(c2ccc(CN3[C@@H](C)CC[C@H](c4ccc(C#N)cc4)S3(=O)=O)c(F)c2)CC1,EC50,[1],3900 nM
same,Efficacy,[2],62%
CC(=O)N1CCN(c2ccc(CN3CCOC[C@H](c4ccccc4)S3(=O)=O)c(F)c2)CC1,EC50,[1],31 nM
same,Efficacy,[2],99%
same,EC50,PBMC [3],1200 nM
same,Imax,PBMC [4],59%
same,EC50,PBMC [5],> 20000 nM
same,EC50,PBMC [6],> 20000 nM
CC(=O)N1CCN(c2ccc(CN3[C@@H](C)CC[C@H](c4ccccc4Cl)S3(=O)=O)c(F)c2)CC1,EC50,[1],230 nM
same,Efficacy,[2],91%
COc1cccc([C@H]2CC[C@H](C)N(Cc3ccc(N4CCN(C(C)=O)CC4)cc3F)S2(=O)=O)c1,EC50,[1],58 nM
same,Efficacy,[2],97%
CC(=O)N1CCN(c2ccc(CN3[C@@H](C)CC[C@H](c4ccsc4)S3(=O)=O)c(F)c2)CC1,EC50,[1],13 nM
same,Efficacy,[2],98%
CC(=O)N1CCN(c2ccc(CN3[C@@H](C)CC[C@H](c4cccc(Cl)c4)S3(=O)=O)c(F)c2)CC1,EC50,[1],7 nM
same,Efficacy,[2],99%
CC(=O)N1CCN(c2ccc(CN3[C@@H](C)CC[C@H](c4cccc(C#N)c4)S3(=O)=O)c(F)c2)CC1,EC50,[1],1300 nM
same,Efficacy,[2],64%
CC(=O)N1CCN(c2ccc(CN3[C@@H](C)CC[C@H](c4ccccc4C#N)S3(=O)=O)c(F)c2)CC1,EC50,[1],1900 nM
same,Efficacy,[2],76%
CC(=O)N1CCN(c2ccc(CN3C[C@@H](C)OC[C@H](c4ccccc4)S3(=O)=O)c(F)c2)CC1,EC50,[1],21 nM
same,Efficacy,[2],100%
COc1ccccc1[C@H]1CC[C@H](C)N(Cc2ccc(N3CCN(C(C)=O)CC3)cc2F)S1(=O)=O,EC50,[1],94 nM
same,Efficacy,[2],94%
CC(=O)N1CCN(c2ccc(CN3[C@@H](C)CC[C@H](c4cccs4)S3(=O)=O)c(F)c2)CC1,EC50,[1],2 nM
same,Efficacy,[2],91%
CC(=O)N1CCN(c2ccc(CN3C[C@H](C)OC[C@H](c4ccccc4)S3(=O)=O)c(F)c2)CC1,EC50,[1],3 nM
same,Efficacy,[2],100%
same,EC50,PBMC [3],450 nM
same,Imax,PBMC [4],67%
same,EC50,PBMC [5],> 20000 nM
same,EC50,PBMC [6],> 20000 nM
same,EC50,[7],22 nM
same,EC50,[8],> 10000 nM
same,EC50,[9],> 10000 nM
same,solubility kinetic,[10],38 µM
same,fraction unbound,[11],0.11
same,fraction unbound,[12],0.07
same,fraction unbound,[13],0.06
same,Papp A→B,[14],16 ×10⁻⁶ cm/s
same,Papp B→A,[15],15 ×10⁻⁶ cm/s
same,efflux ratio,[16],1
same,hepatic extraction ratio,[17],> 0.7
same,hepatic extraction ratio,[18],> 0.7
CC(=O)N1CCN(c2ccc(CN3[C@@H](C)CC[C@H](c4ccccc4)S3(=O)=O)c(F)c2)CC1,EC50,PBMC [3],450 nM
same,Imax,PBMC [4],82%
same,EC50,PBMC [5],> 20000 nM
same,EC50,PBMC [6],> 20000 nM
same,EC50,[7],47 nM
same,EC50,[8],5400 nM
same,EC50,[9],5400 nM
same,solubility kinetic,[10],20 µM
same,fraction unbound,[11],0.05
same,fraction unbound,[12],0.05
same,fraction unbound,[13],0.04
same,Papp A→B,[14],24 ×10⁻⁶ cm/s
same,Papp B→A,[15],32 ×10⁻⁶ cm/s
CC(=O)N1CCN(c2ccc(CN3[C@@H](C)CC[C@H](c4ccc(Cl)cc4)S3(=O)=O)c(F)c2)CC1,EC50,[1],34 nM
same,Efficacy,[2],99%
CC(=O)N1CCN(c2ccc(CN3[C@@H](C)COC[C@H](c4ccccc4)S3(=O)=O)c(F)c2)CC1,EC50,[1],8 nM
same,Efficacy,[2],100%
same,EC50,PBMC [3],750 nM
same,Imax,PBMC [4],80%
same,EC50,PBMC [5],> 20000 nM
same,EC50,PBMC [6],> 20000 nM
same,EC50,[7],64 nM
same,EC50,[8],> 10000 nM
same,EC50,[9],> 10000 nM
CC(=O)N1CCN(c2ccc(CN3[C@@H](C)CC[C@H](c4ccncc4)S3(=O)=O)c(F)c2)CC1,EC50,[1],410 nM
same,Efficacy,[2],89%
CC(=O)N1CCN(c2ccc(CN3[C@@H](C)CC[C@H](c4cccnc4)S3(=O)=O)c(F)c2)CC1,EC50,[1],820 nM
same,Efficacy,[2],73%
CC(=O)N1CCN(c2ccc(CN3[C@@H](C)CC[C@H](c4ccccn4)S3(=O)=O)c(F)c2)CC1,EC50,[1],120 nM
same,Efficacy,[2],87%
